Test results: patent US20210163929A1, “METHODS AND COMPOSITIONS FOR THE TREATMENT OF HEPATIC AND METABOLIC DISEASES” (The Regents of the University of California, priority 2018, published 2021)
“Also recorded” adds a separate entry of the source.

Tests used:
[1] = test system: FGF21 signaling and miR-22 in Huh7 cells; experiment: mRNA and protein levels in Huh7 cells treated with OCA/INT-747, CDCA, butyrate or RA plus butyrate; type: cell-based, human; settings: CDCA 150 μM
Procedure: (§1) Cell culture: Huh7 cells were obtained from Japanese Collection of Research Bioresources and maintained in DMEM with 10% FBS. Cells were treated with DMSO, OCA (5 or 20 μM; Apexbio Technology LLC, Houston, Tex., USA) in serum-free media for indicated time. Cells were plated (1×10^6 cells per 60-mm dish, 2×10^5 cells per 6-well plates, and 1×10^5 cells per 24-well plates) overnight prior to treatment or infection.
Gene expression quantification: Total RNA was extracted using TRIzol Reagent (Thermo Fisher Scientific, Waltham, Mass., USA), and cDNA was generated using High Capacity RNA-to-cDNA Kit (Applied Biosysterms, Carlsbad, Calif., USA). qRT-PCR was performed on ABI 7900HT Fast Real-time PCR system using Power SYBR® Green PCR Master Mix (Applied Biosysterms).
(§2) Western blot: Western blot was performed as described previously (26). Antibodies used were anti-FGFR1, FGF21, FASN, phosphor (P)-AMPK, total (T)-AMPK, phosphor (P)-ERK1/2, and total (T)-ERK1/2 (Cell Signaling Technology, Beverly, Mass., USA), β-ACTIN (MilliporeSigma), CD36 (Bioss Antibodies Inc., Woburn, Mass., USA), CYCLIN A2, PGC1α (Novus Biologicals, LLC, Littleton, Colo., USA), and PPARα (Santa Cruz Biotechnology, Santa Cruz, Calif., USA).

miR-22 = settings: published data; cited from earlier work
miR-22 in HCT116 cells [2] = experiment: miR-22 induction in HCT116 cells treated with bile acids or HDAC inhibitors; type: cell-based, human; settings: 24 hours, CDCA 50, 100, 150 μM, OCA 25 and 50 μM
miR-22 in HCT116 cells [3] = experiment: as above; type: cell-based, human; settings: CDCA 150 μM
Procedure: A time course study in which HCT116 cells were treated by 150 μM CDCA for indicated times. […] Data are presented as mean+/−S.D. * denotes p<0.05.
Data are shown as mean+/−S.D. * p<0.05; ** p<0.01; ***p<0.001.
OCA is a semi-synthetic bile acid, which as the structure of 6α-ethyl-chenodeoxycholic acid.

[4] = test system: FGF21 signaling in Huh7 cells; experiment: Huh7 cells infected/transfected with miR-22 or miR-22 inhibitors, mRNA and Western blot; type: cell-based, human
Text: However, miR-22 was induced in the livers and adipose tissues of WD-fed mice (FIG. 15B). Similarly, using human liver biopsy specimens, miR-22 levels were positively associated with hepatic fat content and inversely correlated with the mRNA levels of PGC-1α, a key regulator of mitochondrial biogenesis (FIG. 15C). […] To study the downstream effects of miR-22, miR-22 mimics (ID: MIMAT0000077, […] (SEQ ID NO:2), Applied Biological Materials Inc.) were used to transfect human liver Huh7 cells.
as §1
(§3) Constructs and luciferase reporter assay: The 3′ untranslated region (3′-UTR) of the FGFR1 gene containing the putative binding site for miR-22 and the entire 3′-UTR of the FGF21 gene (105 bp) was cloned into the psiCHECK2 vector (Promega, Madison, Wis., USA) using NotI and XhoI. For cell infection, adenovirus (negative control), adenoviral-delivered miR-22 (miR-22), or adenoviral-miR-22 inhibitors (SEQ ID NO:1; Applied Biological Materials Inc., Richmond, BC) were used. Forty-eight h post infection, cells were transfected with psiCHECK2-FGR1-3′UTR or psiCHECK2-FGF21 3′UTR using Lipofectamine 2000 (Thermo Fisher Scientific). Twenty-four h later, cells were harvested for firefly and Renilla luciferase assay using the Dual-luciferase Reporter system (Promega). Renilla luciferase activity was standardized to firefly luciferase activity.
as §2

[5] = test system: Western diet-induced steatosis in C57BL/6 mice; experiment: Pilot study in Western diet-fed mice, tail vein adenoviral miR-22 mimics or inhibitors; type: in vivo, mouse
Procedure: Wild type C57BL/6 mice were fed with a high fat and high sucrose (21.2% fat, 34% sucrose, and 0.2% cholesterol) Western diet (WD) since weaning (3 weeks). When mice were 2.5 months old, they received adenoviral-delivery of miR-22 mimics or miR-22 inhibitors (i.e., SEQ ID NO:1) via tail vein injection (1×10^9 PFU/100 μl saline, 3 doses in 10 days). […] In addition, hepatic Pgc1α mRNA level was reduced by miR-22 mimics, but increased by miR-22 inhibitors (FIG. 10).
To further analyze the role miR-22 in regulating hepatic metabolism, we have done pilot studies to test the effect of miR-22 in non-alcoholic and alcoholic steatohepatitis. Steatosis was induced by feeding mice with a WD that has high fat and high sucrose content since weaning (3-weeks old). After 2 months of differential diet feeding, mild steatosis was found in WD-fed mice. Then, those WD-fed mice received adenoviral-control, adenoviral-delivered miR-22 mimics, or miR-22 inhibitors (i.e., SEQ ID NO:1) via tail vein injection (1×10^9 pfu/200 μl, 3 doses, weekly) while continuing a WD. […] These exciting findings indicate that forced miR-22 expression in WD-fed mice potentially can be a novel NASH model.

3′UTR of FGFR1 = experiment: Luciferase reporter assay, psiCHECK2-FGFR1 3′UTR in Huh7 cells; type: cell-based, human; settings: 48 h infection then reporter transfection
Text: as §3

[6] = test system: PPREs in the regulatory region of FGF21; experiment: ChIP-qPCR of PPARα and PGC1α occupancy in Huh7 cells; type: cell-based, human; settings: miR-22 overexpression
Procedure: Chromatin immunoprecipitation (ChIP)-qPCR: ChIP-qPCR was performed based on a previous publication (27). Briefly, chromatin lysate was precleared before incubation with anti-PGC1α (Novus Biologicals) and anti-PPARα (Santa Cruz Biotechnology). IgG (Santa Cruz Biotechnology) and RNA Polymerase II antibody (MilliporeSigma) was used as negative and positive control, respectively. Samples were incubated with Dynase beads at 4° C. overnight followed by de-crosslinking and purification. DNA fragments generated served as templates for qPCR using Power SYBR Green PCR Master Mix.

3′UTR of FGF21 = experiment: Luciferase reporter assay, psiCHECK2-FGF21 3′UTR in Huh7 cells; type: cell-based, human; settings: 48 h infection then reporter transfection
Text: as §3

[7] = test system: alcohol-induced steatosis in C57BL/6 mice; experiment: Alcohol-induced steatosis in mice treated with adenoviral miR-22 inhibitors; type: in vivo, mouse; settings: FIG. 29E
Text: We performed another pilot experiment to test the effect of miR-22 inhibitors in reducing alcohol-induced steatosis. The same method described above for FIG. 2C was used to induce steatosis followed by miR-22 inhibitor treatment through tail vein injection.
Additionally, alcohol was used to induce fatty liver. Mice were on Liber DeCarli liquid diet supplemented with 5% alcohol for 3 weeks followed by delivery of adenoviral-control and adenoviral-miR-22 inhibitors using the same methods described above. During the interventions, mice continued having alcohol-supplemented liquid diet.
3-month old WT male mice were fed with Liber DeCarli diet with 5% alcohol supplementation for 3 weeks followed by adenovirus delivery of miR-22 inhibitor (1×10^9PFU) through tail vein injection (3 times in 10 days). The empty adenovirus was used as a negative control. The mice were killed 1 day after the last injection. Steatosis scored was graded on a scale of a scale of 0 (<5%), 1 (5-33%), 2 (34-66%), and 3 (>66%). […]
Biochemical analysis: Hepatic triglyceride and cholesterol (BioAssay Systems, Hayward, Calif., USA) levels and serum lipopolysaccharide (LPS) (Thermo Fisher Scientific), alanine transaminase (ALT) (Pointe Scientific), and alkaline phosphatase (ALP) (Pointe Scientific) levels were quantified according to the manufacturer's instructions.

[8] = test system: HDAC1, HDAC4 and CYCLIN A2 in Huh7 and HCT116 cells; experiment: Deacetylase protein levels after miR-22 in Huh7 and HCT116 cells; type: cell-based, human
[9] = test system: mice after 2/3 liver resection; experiment: 2/3 liver resection in mice given miR-22 inhibitors or mimics; type: in vivo, mouse; settings: compared to other groups
Procedure: The data presented in FIGS. 38 and 39 further support the usefulness of miR-22 inhibition. For the experiments used to generate the data in FIG. 38, mice received miR-22 inhibitors or miR-22 mimics via tail vein injection 3 days prior to 2/3 liver resection (1×10^9 pfu in 100 μL saline, one injection per day). Mice were killed on day 0 (immediately after liver resection) or 2 days later.

[10] = WD-fed C57BL/6 mice 2.5 months old, tail vein 1×10^9 PFU/100 μl, 3 doses in 10 days

| Molecule | FGF21 and miR-22 levels [1] | miR-22 induction (miR-22) | miR-22 level (miR-22 in HCT116 cells [2]) | FGF21 and miR-22 levels (miR-22 in HCT116 cells [3]) | expression of βKlotho [4] | total AMPK [4] | PPARα and PGC1α protein levels ([4]; 48 h post infection) | AMPK and ERK1/2 activation (P-AMPK, P-ERK1/2) ([4]; miR-22 overexpression) | FGF21 and FGFR1 (SIRT1, p-AMPK) levels ([4]; miR-22 overexpression) | FGF21 and FGFR1 (SIRT1, p-AMPK) levels ([4]; miR-22 overexpression, listed as miR-22) | hepatic Pgc1α mRNA level [5, 10] | hepatic lymphocyte infiltration [5, 10] | severity of steatosis / hepatic fat content [5, 10] | liver histology (hepatic fat content, lymphocyte infiltration) ([5]; WD-fed mice after 2 months of diet, tail vein 1×10^9 pfu/200 μl, 3 doses, weekly) | luciferase activity driven by FGFR1 3′UTR (3′UTR of FGFR1) | occupancy of PPARα and PGC1α in the two PPREs of FGF21 [6] | luciferase activity driven by FGF21 3′UTR (3′UTR of FGF21) | hepatic gene expression (PGC1α, CPT1, SREBP-1c, FASN, TNFα) [7] | protein level of HDAC1, HDAC4 and CYCLIN A2 [8] | liver-to-body weight ratio and fat-to-body weight ratio [9] |
| --- | --- | --- | --- | --- | --- | --- | --- | --- | --- | --- | --- | --- | --- | --- | --- | --- | --- | --- | --- | --- |
| C[C@H](CCC(=O)O)[C@H]1CC[C@H]2[C@@H]3[C@H](O)C[C@@H]4C[C@H](O)CC[C@]4(C)[C@H]3CC[C@]12C [CDCA, chenodeoxycholic acid] | induced FGF21 and miR-22 levels | induced | induced miR-22 | induced FGF21 and miR-22 levels |  |  |  |  |  |  |  |  |  |  |  |  |  |  |  |  |
| miR-22 mimics: miR-22 mimics (ID: MIMAT0000077, AAGCUGCCAGUUGAAGAACUGU, SEQ ID NO:2), transfected or adenoviral-delivered (chemistry not given here; listed as Homo sapiens) |  |  |  |  | did not affect the expression of βKlotho | had no effect on total AMPK | reduced PPARα and PGC1α | AMPK and ERK1/2 deactivation | reduced the protein level of FGF21, FGFR1 and p-AMPK; also recorded: reduced the protein level of FGF21, FGFR1, and SIRT1 | reduced FGF21 and FGFR1 at both mRNA and protein levels | reduced | induced hepatic lymphocyte infiltration | increased the severity of steatosis | increased hepatic fat content and lymphocyte infiltration | decreased the luciferase activity | substantially reduced | neither miR-22 nor miR-22 inhibitors changed the luciferase activity | reduced PGC1α and CPT1, but increased SREBP-1c, FASN, and TNFα | reduced the protein level of HDAC1 and HDAC4 as well as CYCLIN A2 | substantially higher |
